Measurements as given in patent US5082926A, “Polypeptide with type IV collagen cell adhesion, spreading and motility activity” (Regents of the University of Minnesota, priority 1989, dated 1992).
Residues, ends and D or L forms follow the SMILES beside them.

Assays:
K 1735 M4 melanoma cells = assay: Melanoma cell adhesion and spreading on peptide-coated Immulon 1 wells; format: cell-based, mouse; details: K1735 M4 melanoma; surface coated at 100 μg/ml; average of three experiments
Experimental: Subconfluent cultures of M4 melanoma cells were radiolabeled overnight with 2 μCi/ml ^3 H-thymidine. […] The melanoma cells were then washed and resuspended to a final concentration of 3-4×10^4 cells/ml in DME supplemented with 20 mM Hepes and 10 mg/ml BSA. The cells remained viable (>95%) after this procedure, based upon exclusion of trypan blue dye.
(§1) Immulon 1 microtiter plates were prepared by drying down 100 μl/well of IV-H1 peptide which had been diluted to various concentrations (1-500 μg/ml) in Voller's carbonate buffer. The ability of the IV-H1 peptide to bind the plates was determined using radioiodinated peptides (described previously) in order to be certain that any differences in cell adhesion (or spreading) were not due to differential binding to surfaces. Nonspecific cell adhesion to sites on the plastic was blocked by the use of a 10 mg/ml solution of BSA in Voller's carbonate buffer at 37° C. for 1 hr. […] Adhesion was quantitated after washing to remove nonadherent and weakly adherent cells, by solubilizing the cells with 150 μl/well of 0.5N NaOH containing 1% SDS. Bound radioactivity was quantitated in a Beckman LS 3801 liquid scintillation counter. […] Each experiment was repeated a minimum of three times, and within a given experiment, each experimental point was determined in triplicate.

[1] = system: Bovine aortic endothelial cells; assay: Cell adhesion and spreading on coated peptide IV-H1 or type IV collagen; format: cell-based; details: surface coated at 100 μg/ml
Experimental: (§2) To characterize peptide IV-H1, the interaction of the peptide with other cell lines was investigated. These cell lines include the highly metastatic human melanoma cell line A375 M (also provided by Dr. Fidler), which was maintained in MEM with added vitamins and 10% FBS; and the fibrosarcoma cell line UV2237 MM, which was maintained in DME with 10% FBS. […]
as §1, with “surfaces.” for “surfaces. Nonspecific cell adhesion to sites on the plastic was blocked by the use of a 10 mg/ml solution of BSA in Voller's carbonate buffer at 37° C. for 1 hr.”, “triplicate. […]” for “triplicate.”

A375 M melanoma = assay: as above; format: cell-based, human; details: surface coated at 100 μg/ml
Experimental: as §2
as §1, with “surfaces.” for “surfaces. Nonspecific cell adhesion to sites on the plastic was blocked by the use of a 10 mg/ml solution of BSA in Voller's carbonate buffer at 37° C. for 1 hr.”, “triplicate. […]” for “triplicate.”

[2] = system: Squamous carcinoma cell line (SCC9); assay: as above; format: cell-based, human; details: surface coated at 100 μg/ml
Experimental: as §2
as §1, with “surfaces.” for “surfaces. Nonspecific cell adhesion to sites on the plastic was blocked by the use of a 10 mg/ml solution of BSA in Voller's carbonate buffer at 37° C. for 1 hr.”, “triplicate. […]” for “triplicate.”

UV 2237 fibrosarcoma = assay: as above; format: cell-based, murine; details: surface coated at 100 μg/ml
Experimental: as §2
as §1, with “surfaces.” for “surfaces. Nonspecific cell adhesion to sites on the plastic was blocked by the use of a 10 mg/ml solution of BSA in Voller's carbonate buffer at 37° C. for 1 hr.”, “triplicate. […]” for “triplicate.”

B104 neuroblastoma = assay: as above; format: cell-based, rat; details: surface coated at 100 μg/ml
Text: (§3) To characterize peptide IV-H1, the interaction of the peptide with other cell lines was investigated. These cell lines include the highly metastatic human melanoma cell line A375 M (also provided by Dr. Fidler), which was maintained in MEM with added vitamins and 10% FBS; and the fibrosarcoma cell line UV2237 MM, which was maintained in DME with 10% FBS. Other cell lines studied included: the C6 rat glioma cell line (ATCC, #CCL107), which was maintained in DME plus 10% CS; the SCC9 human squamous carcinoma cell line (ATCC, #CRL1629), which was maintained in a 1:1 solution of DME and HAM F12 containing 10% FBS; the B65 and B104 murine neuroblastoma cell lines which were obtained from Dr. David Schubert at the Salk Institute (Schuber et al., Nature, 249, 224-227 (1974)) and maintained in F12H media with supplements; and bovine aortic endothelial cells, which were isolated and maintained as described by Herbst et al., J. Cell Biol., 106, 1365-1373 (1988), the disclosure of which is incorporated by reference herein.
as §1, with “triplicate. […]” for “triplicate.”

B65 neuroblastoma = assay: as above; format: cell-based, rat; details: surface coated at 100 μg/ml
Text: as §3
as §1, with “triplicate. […]” for “triplicate.”

C6 glioma = assay: as above; format: cell-based, rat; details: surface coated at 100 μg/ml
Text: as §3
as §1, with “triplicate. […]” for “triplicate.”

M4 melanoma cells [3] = assay: Melanoma cell motility in microchemotaxis chambers on coated filters; format: cell-based, mouse; details: 10 μg/ml solution
Experimental: In light of the involvement of cell adhesion and spreading in motility, peptide IV-H1 was studied for its ability to directly promote melanoma cell motility. Peptide-mediated M4 melanoma cell motility was examined in 48-well microchemotaxis chambers (Neuroprobe, Bethesda, MD) equipped with 8 μm pore size polyvinylpyrrolidone-free polycarbonate filters by a modification of a procedure described by Herbst et al., supra. Briefly, peptides were diluted in Voller's carbonate buffer and added in triplicate 50 μl aliquots to the lower wells of the chambers. The chambers were assembled with the filters in place and incubated overnight at 37° C. to allow the peptides to adsorb to the lower surfaces of the filters. The filters were then washed and transferred to fresh chambers which contained only media (DME containing 20 mM Hepes, pH 7.4). Cells were then added to the upper wells at 20,000/well in DME/Hepes media and incubated for 6 hr. at 37° C. in a humidified CO2 chamber. Filters were then washed, fixed and stained, and the number of cells which had migrated through the filters was quantitated using an Optomax Image Analysis System as described in Herbst et al., supra. Each experiment was repeated a minimum of three times. […] This compares with melanoma cell motility of 10-fold background levels in response to a 10 μg/ml solution of intact type IV collagen (FIG. 4b).

M4 melanoma cells [4] = details: 50 μg/ml
Experimental: The collagen coating concentration (5 μg/ml) was chosen based on the concentration which yielded half-maximal levels of cellular motility. The inhibitory effect of the peptides on cell motility was determined by preincubating the cells with increasing concentrations of the peptides for 20 min. prior to the assay to allow for binding to cell surface receptors. Cells in the continued presence of peptides were then added to the upper wells of chambers containing the protein-coated filters.

Type IV Collagen: Type IV collagen extracted from the Englebreth Holm Swarm sarcoma grown in lathyritic mice
% AD (percent of input cells which adhered) (K 1735 M4 melanoma cells): 61.9% | % AD (percent of input cells which adhered) [1]: 52.7% | % AD (percent of input cells which adhered) (A375 M melanoma): 50.3% | % AD (percent of input cells which adhered) [2]: 39.6% | % AD (percent of input cells which adhered) (UV 2237 fibrosarcoma): 7.9% | % AD (percent of input cells which adhered) (B104 neuroblastoma): 18.6% | % AD (percent of input cells which adhered) (B65 neuroblastoma): 7.7% | % AD (percent of input cells which adhered) (C6 glioma): 100.0% | melanoma cell motility (M4 melanoma cells [3]): 10 -fold background levels

CC(C)[C@H](NC(=O)CN)C(=O)N[C@@H](CCCCN)C(=O)NCC(=O)N[C@@H](CC(=O)O)C(=O)N[C@@H](CCCCN)C(=O)NCC(=O)N[C@@H](CC(N)=O)C(=O)N1CCC[C@H]1C(=O)NCC(=O)N[C@@H](Cc1c[nH]c2ccccc12)C(=O)N1CCC[C@H]1C(=O)NCC(=O)N[C@@H](C)C(=O)N1CCC[C@H]1C(=O)O [peptide IV-H1, GVKGDKGNPGWPGAP] (H-GVKGDKGNPGWPGAP-OH)
maximal inhibition of type IV collagen-mediated cell motility (M4 melanoma cells [4]): 80%
